Data taken from US6355799B1, “Substituted benzene compounds, process for their preparation, and herbicidal and defoliant compositions containing them” (ISK Americas Incorporated, priority 1997, dated 2002).

How the values were obtained:
Type in all cases: in vivo
[1] = test system: barnyardgrass (Echinochloa crus-galli, ECHCG); experiment: Post-emerge test, greenhouse herbicide activity screening; conditions: post-emerge, 14 days after application, rating scale 0-100
Source text: (§1) A standard greenhouse herbicide activity screening system was used to evaluate the herbicidal efficacy and crop safety of these test compounds. Seven broadleaf weed species including redroot pigweed (Amaranthus retroflexus, AMARE, velvetleaf (Abutilon theophrasti, ABUTH), sicklepod (Cassia obtusifolia, CASOB), ivyleaf morningglory (Ipomoea hederacea, IPOHE), lambsquarters (Chenopodium album, CHEAL), common ragweed (Ambrosia artemisizfolia L., AMBEL), and cocklebur (Xanthium strumarium, XANST) were used as test species. Four grass weed species including green foxtail (Setaria viridis, SETVI), barnyardgrass (Echinochloa crus-galli, ECHCG), johnsongrass (Sorghum halepense, SORHA), and large crabgrass (Digitaria sanguinalis, DIGSA) were also used. In addition, three crop species, field corn (Zea mays L., var. Dekalb 535, CORN), soybean (Glycine max L., var. Pella 86, SOY), and is upland rice (Oryza sp., var. Tebonnet, RICE) were included.
(§2) All plants were grown in 10 cm square plastic pots which were filled with a sandy loam soil mix. For pre-emerge tests, seeds were planted one day prior to application of the test compounds. For post-emerge tests, seeds were planted 8-21 days prior to the test to allow emergence and good foliage development prior to application of the test substances. At the time of the post-emerge application, plants of all species were usually at the 2-3 leaf stage of development.
(§3) All test compounds Were dissolved in acetone and applied to the test units in a volume of 187 l /ha. Test materials were applied at rates ranging from 15 g ai/ha to 1000 g ai/ha using a track sprayer equipped with a TJ8001E even flow flat fan spray nozzle. Plants were arranged on a shelf so that the top of the canopy (post-emerge) or top of the soil surface (pre-emerge) was 40-45 cm below the nozzle. Pressurized air was used to force the test solution through the nozzle as it was mechanically advanced (via electrically driven chain drive) over the top of all test plants/pots. This application simulates a typical commercial field herbicide application.
(§4) In the post-emerge test, a commercial non-ionic surfactant was also included (0.25% v/v) to enhance wetting of the leaf surfaces of target plants. Immediately after application, test units of the pre-emerge applications were watered at the soil surface to incorporate the test materials. Subsequently, these test units were bottom-watered. Post-emerge test units were always bottom-watered.
(§5) At 14 days after application of the test materials, phytotoxicity ratings were recorded. A rating scale of 0-100 was used as previously described in Research Methods in Weed Science, 2nd edition, B. Truelove, Ed., Southern Weed Science Society, Auburn University, Auburn, Ala. 1977. Briefly, “0” corresponds to no damage and “100” corresponds to complete death of all plants in the test unit. This scale was used both to determine efficacy against weed species and damage to crop species. Herbicide activity data for various compounds of this invention, which are shown by compound No. in Tables 1-8, are shown in Tables 11 and 12.

[2] = test system: sicklepod (Cassia obtusifolia, CASOB); experiment: as above; conditions: post-emerge, 14 days after application, rating scale 0-100
Source text: as §1, §2, §3, §4, §5

[3] = test system: lambsquarters (Chenopodium album, CHEAL); experiment: as above; conditions: post-emerge, 14 days after application, rating scale 0-100
Source text: as §1, §2, §3, §4, §5

[4] = test system: velvetleaf (Abutilon theophrasti, ABUTH); experiment: as above; conditions: post-emerge, 14 days after application, rating scale 0-100
Source text: as §1, §2, §3, §4, §5

[5] = test system: ivyleaf morningglory (Ipomoea hederacea, IPOHE); experiment: as above; conditions: post-emerge, 14 days after application, rating scale 0-100
Source text: as §1, §2, §3, §4, §5

[6] = test system: large crabgrass (Digitaria sanguinalis, DIGSA); experiment: as above; conditions: post-emerge, 14 days after application, rating scale 0-100
Source text: as §1, §2, §3, §4, §5

[7] = test system: green foxtail (Setaria viridis, SETVI); experiment: as above; conditions: post-emerge, 14 days after application, rating scale 0-100
Source text: as §1, §2, §3, §4, §5

[8] = test system: redroot pigweed (Amaranthus retroflexus, AMARE); experiment: as above; conditions: post-emerge, 14 days after application, rating scale 0-100
Source text: as §1, §2, §3, §4, §5

[9] = test system: redroot pigweed (Amaranthus retroflexus, AMARE); experiment: Pre-emerge test, greenhouse herbicide activity screening; conditions: pre-emerge, 14 days after application, scale 0-100
Outline: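 Visual ratings on a 0-100 scale (0 no damage, 100 all plants dead) were taken at 14 days after treatment. Rates of 15-1000 g ai/ha in acetone, 187 l/ha, were sprayed onto soil one day after planting (pre-emerge) or onto 2-3 leaf plants with 0.25% v/v surfactant (post-emerge).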

[10] = test system: upland rice (Oryza sp., var. Tebonnet, RICE); experiment: Pre-emerge test, crop safety; conditions: pre-emerge, 14 days after application, scale 0-100
Source text: as §1, §2, §3, §4, §5

[11] = test system: field corn (Zea mays L., var. Dekalb 535, CORN); experiment: Pre-emerge test, crop safety; conditions: pre-emerge, 14 days after application, scale 0-100
Source text: as §1, §2, §3, §4, §5

[12] = test system: upland rice (Oryza sp., var. Tebonnet, RICE); experiment: Post-emerge test, crop safety; conditions: post-emerge, 14 days after application, rating scale 0-100
Source text: as §1, §2, §3, §4, §5

[13] = test system: field corn (Zea mays L., var. Dekalb 535, CORN); experiment: Post-emerge test, crop safety; conditions: post-emerge, 14 days after application, rating scale 0-100
Source text: as §1, §2, §3, §4, §5

[14] = test system: barnyardgrass (Echinochloa crus-galli, ECHCG); experiment: Pre-emerge test, greenhouse herbicide activity screening; conditions: pre-emerge, 14 days after application, scale 0-100
Source text: as §1, §2, §3, §4, §5

[15] = test system: sicklepod (Cassia obtusifolia, CASOB); experiment: as above; conditions: pre-emerge, 14 days after application, scale 0-100
Source text: as §1, §2, §3, §4, §5

[16] = test system: lambsquarters (Chenopodium album, CHEAL); experiment: as above; conditions: pre-emerge, 14 days after application, scale 0-100
Source text: as §1, §2, §3, §4, §5

[17] = test system: velvetleaf (Abutilon theophrasti, ABUTH); experiment: as above; conditions: pre-emerge, 14 days after application, scale 0-100
Source text: as §1, §2, §3, §4, §5

[18] = test system: ivyleaf morningglory (Ipomoea hederacea, IPOHE); experiment: as above; conditions: pre-emerge, 14 days after application, scale 0-100
Source text: as §1, §2, §3, §4, §5

[19] = test system: large crabgrass (Digitaria sanguinalis, DIGSA); experiment: as above; conditions: pre-emerge, 14 days after application, scale 0-100
Source text: as §1, §2, §3, §4, §5

[20] = test system: green foxtail (Setaria viridis, SETVI); experiment: as above; conditions: pre-emerge, 14 days after application, scale 0-100
Source text: as §1, §2, §3, §4, §5

SMILES	ECHCG phytotoxicity rating ([1]; 63 g ai/ha)	ECHCG phytotoxicity rating ([1]; 250 g ai/ha)	CASOB phytotoxicity rating ([2]; 63 g ai/ha)	CASOB phytotoxicity rating ([2]; 250 g ai/ha)	CHEAL phytotoxicity rating ([3]; 63 g ai/ha)	CHEAL phytotoxicity rating ([3]; 250 g ai/ha)	ABUTH phytotoxicity rating ([4]; 63 g ai/ha)	ABUTH phytotoxicity rating ([4]; 250 g ai/ha)	IPOHE phytotoxicity rating ([5]; 63 g ai/ha)	IPOHE phytotoxicity rating ([5]; 250 g ai/ha)	DIGSA phytotoxicity rating ([6]; 63 g ai/ha)	DIGSA phytotoxicity rating ([6]; 250 g ai/ha)	SETVI phytotoxicity rating ([7]; 63 g ai/ha)	SETVI phytotoxicity rating ([7]; 250 g ai/ha)	AMARE phytotoxicity rating ([8]; 63 g ai/ha)	AMARE phytotoxicity rating ([8]; 250 g ai/ha)	phytotoxicity rating AMARE ([9]; 63 g ai/ha)	phytotoxicity rating AMARE ([9]; 250 g ai/ha)	phytotoxicity rating RICE (crop damage) ([10]; 63 g ai/ha)	phytotoxicity rating RICE (crop damage) ([10]; 250 g ai/ha)	also measured
COc1c(C#N)cc(F)c(-n2c(=O)cc(C(F)(F)F)n(C)c2=O)c1NC(=O)c1ccc2ccccc2c1 [2-180]	40	60	100	100	100	100	100	100	100	100	40	40	60	70	100	100	100	100	40	70	phytotoxicity rating CORN (crop damage) ([11]; 63 g ai/ha): 0; phytotoxicity rating CORN (crop damage) ([11]; 250 g ai/ha): 5; RICE phytotoxicity rating (crop damage) ([12]; 63 g ai/ha): 20; RICE phytotoxicity rating (crop damage) ([12]; 250 g ai/ha): 65; CORN phytotoxicity rating (crop damage) ([13]; 63 g ai/ha): 5; CORN phytotoxicity rating (crop damage) ([13]; 250 g ai/ha): 20; phytotoxicity rating ECHCG ([14]; 63 g ai/ha): 10; phytotoxicity rating ECHCG ([14]; 250 g ai/ha): 80; phytotoxicity rating CASOB ([15]; 63 g ai/ha): 40; phytotoxicity rating CASOB ([15]; 250 g ai/ha): 50; phytotoxicity rating CHEAL ([16]; 63 g ai/ha): 100; phytotoxicity rating CHEAL ([16]; 250 g ai/ha): 100; phytotoxicity rating ABUTH ([17]; 63 g ai/ha): 100; phytotoxicity rating ABUTH ([17]; 250 g ai/ha): 100; phytotoxicity rating IPOHE ([18]; 63 g ai/ha): 60; phytotoxicity rating IPOHE ([18]; 250 g ai/ha): 100; phytotoxicity rating DIGSA ([19]; 63 g ai/ha): 20; phytotoxicity rating DIGSA ([19]; 250 g ai/ha): 90; phytotoxicity rating SETVI ([20]; 63 g ai/ha): 30; phytotoxicity rating SETVI ([20]; 250 g ai/ha): 90
COc1c(C#N)cc(F)c(-n2c(=O)cc(C(F)(F)F)n(C)c2=O)c1NC(=O)c1ccc2ccccc2c1 [2-181]	40	60	100	100	100	100	100	100	100	100	30	70	70	80	100	100	100	100	15	80	phytotoxicity rating CORN (crop damage) ([11]; 63 g ai/ha): 0; phytotoxicity rating CORN (crop damage) ([11]; 250 g ai/ha): 5; RICE phytotoxicity rating (crop damage) ([12]; 63 g ai/ha): 15; RICE phytotoxicity rating (crop damage) ([12]; 250 g ai/ha): 60; CORN phytotoxicity rating (crop damage) ([13]; 63 g ai/ha): 10; CORN phytotoxicity rating (crop damage) ([13]; 250 g ai/ha): 20; phytotoxicity rating ECHCG ([14]; 63 g ai/ha): 40; phytotoxicity rating ECHCG ([14]; 250 g ai/ha): 80; phytotoxicity rating CASOB ([15]; 63 g ai/ha): 10; phytotoxicity rating CASOB ([15]; 250 g ai/ha): 90; phytotoxicity rating CHEAL ([16]; 63 g ai/ha): 100; phytotoxicity rating CHEAL ([16]; 250 g ai/ha): 100; phytotoxicity rating ABUTH ([17]; 63 g ai/ha): 100; phytotoxicity rating ABUTH ([17]; 250 g ai/ha): 100; phytotoxicity rating IPOHE ([18]; 63 g ai/ha): 30; phytotoxicity rating IPOHE ([18]; 250 g ai/ha): 80; phytotoxicity rating DIGSA ([19]; 63 g ai/ha): 60; phytotoxicity rating DIGSA ([19]; 250 g ai/ha): 90; phytotoxicity rating SETVI ([20]; 63 g ai/ha): 70; phytotoxicity rating SETVI ([20]; 250 g ai/ha): 95
